Read-outs that look alike come from different tables or passages of the source.

A short description of series [1]: Caco-2 permeation assay, bidirectional permeability. Type of series: in vitro ADME. Conditions: human, Caco-2, pH 7.4, 5 μM, Papp(B-A)/Papp(A-B). A digest of the protocol: (§1)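 Bidirectional A→B and B→A transport of 5 μM compound in HBSS (10 mM HEPES, pH 7.4), receiver containing 2% BSA, 2 h at 37 °C on 14-day monolayers. Papp from LC-MS/MS peak areas; efflux ratio Papp(B-A)/Papp(A-B), plus recovery. Lucifer Yellow leakage <1% required for monolayer acceptance.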
Background: Caco-2 cells form a polarised layer with tight junctions and transporters.

The test system of a further series is OVCAR-3 cells. Put plainly: In vitro anti-proliferative activity assay in cancer cell line OVCAR-3 (CellTiter-Glo, 4- or 7-day). Conditions: read-out: OVCAR-3 cellular antiproliferation assay IC50. In kind it is cell-based.
A further series deals with KIF18A (Homo sapiens (Human), UniProt Q8NI77). Put plainly: KIF18A Biochemical Assay (ATPase, ADP-Glo). Background: In ADP-Glo the light output rises with the ADP produced.
Chain of KIF18A (Q8NI77 1-367): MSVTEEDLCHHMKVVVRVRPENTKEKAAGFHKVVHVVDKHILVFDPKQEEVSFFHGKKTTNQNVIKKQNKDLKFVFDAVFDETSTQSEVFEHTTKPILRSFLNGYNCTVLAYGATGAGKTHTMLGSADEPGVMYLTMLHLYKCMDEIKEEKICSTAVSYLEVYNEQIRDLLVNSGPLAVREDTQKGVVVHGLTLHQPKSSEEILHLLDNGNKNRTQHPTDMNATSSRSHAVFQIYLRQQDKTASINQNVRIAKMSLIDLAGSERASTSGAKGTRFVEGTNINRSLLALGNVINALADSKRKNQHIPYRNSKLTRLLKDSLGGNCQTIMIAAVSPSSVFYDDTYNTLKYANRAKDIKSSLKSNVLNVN
Chain of KIF18A (P02550 whole entry partner): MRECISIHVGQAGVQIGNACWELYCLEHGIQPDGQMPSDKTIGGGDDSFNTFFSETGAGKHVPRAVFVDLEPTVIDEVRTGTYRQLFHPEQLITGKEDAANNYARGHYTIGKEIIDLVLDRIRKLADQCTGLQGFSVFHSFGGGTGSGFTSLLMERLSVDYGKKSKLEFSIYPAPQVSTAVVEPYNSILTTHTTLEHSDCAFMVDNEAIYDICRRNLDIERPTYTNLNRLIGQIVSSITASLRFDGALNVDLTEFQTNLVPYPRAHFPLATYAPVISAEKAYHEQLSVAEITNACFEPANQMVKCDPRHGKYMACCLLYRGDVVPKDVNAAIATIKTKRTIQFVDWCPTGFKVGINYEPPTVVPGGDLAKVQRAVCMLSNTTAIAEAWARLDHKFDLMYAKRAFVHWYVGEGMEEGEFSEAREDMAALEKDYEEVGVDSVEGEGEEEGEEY
Chain of KIF18A (P02554 whole entry partner): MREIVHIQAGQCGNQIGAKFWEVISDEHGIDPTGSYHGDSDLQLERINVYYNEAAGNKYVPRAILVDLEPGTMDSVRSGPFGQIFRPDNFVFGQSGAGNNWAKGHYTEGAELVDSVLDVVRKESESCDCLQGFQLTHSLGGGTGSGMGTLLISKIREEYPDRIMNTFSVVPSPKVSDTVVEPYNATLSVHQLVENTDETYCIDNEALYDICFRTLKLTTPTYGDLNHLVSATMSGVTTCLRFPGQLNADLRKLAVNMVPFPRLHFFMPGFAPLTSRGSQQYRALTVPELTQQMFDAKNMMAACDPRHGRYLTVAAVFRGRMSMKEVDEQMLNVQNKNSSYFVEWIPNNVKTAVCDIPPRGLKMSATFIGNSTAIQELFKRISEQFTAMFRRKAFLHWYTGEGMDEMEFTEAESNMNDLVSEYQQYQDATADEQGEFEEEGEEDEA
Series [2] can be described thus: In vivo pharmacokinetic evaluation in mouse. Also noted: species or system female balb/c nude mice. Conditions: for IV Clearance / Vd: 3 mg/kg IV; for Vd / Cmax / half-life: female, balb/c nude, plasma; for Vd: read-out: IV Vss; for Cmax / half-life: 10 mg/kg PO; for half-life: read-out: PO T1/2 (converted).
Series [3] in a line: Bone marrow concentration in 28 day OVCAR-3 xenograft study. Type of series: in vivo, mice. To be noted: NOD SCID, mouse, 30 mg/kg QD oral, 28 day study. As for the experimental part:
On Day 28, tissues were collected from animals. About 30-60 μL of whole blood was collected into tubes containing EDTA anticoagulant, and plasma was harvested by centrifugation at 4,000 g×5 min and stored at −80° C. until analysis. Plasma analysis followed the same protocol as for the Day 1 plasma analysis. Additionally, the femurs of the mice were cut and put in pre-weighed tubes. The bone marrow was harvested by centriguation at 8,000 g×15 min. Then, the total weight of both the bone marrow and the tube was recorded. The bone marrow was stored at −80° C. until analysis.
Samples were collected from animals 6 h after the last dose of compound and at 24 h after the last dose of compound.

A short description of series [4]: Tolerability (body weight) in 28 day OVCAR-3 xenograft study. Type of series: in vivo. To be noted: all concentrations dosed, 28 day treatment.
The subject of another series is OVCAR-3 xenografts. Put plainly: 28 day in vivo efficacy in OVCAR-3 xenografts. To be noted: oral. Details: species or system female NOD SCID mice. Here is the method:
Experiments were performed in female NOD SCID mice (GenPharmatech Co.). Animals were allowed to acclimate for 7 days before the study. The general health of the animals were evaluated by a veterinarian, and complete health checks were performed prior to the study. General procedures for animal care and housing were in accordance with the standard, Commission on Life Sciences, National Research Council, Standard Operating Procedures (SOPs) of Pharmaron, Inc. The mice were kept in laminar flow rooms at constant temperature and humidity with 3-5 mice in each cage. Animals were housed in polycarbonate cages which had dimensions of 300×180×150 mm^3 and in an environmentally monitored, well-ventilated room maintained at a temperature of 23±3° C. and a relative humidity of 40%-70%. Fluorescent lighting provided illumination approximately 12 hours per day. Animals had free access to irradiation sterilized dry granule food during the entire study period except for time periods specified by the protocol, as well as sterile drinking water in a bottle that was available ad libitum during the quarantine and study periods.
The OVCAR-3 (ATCC) tumor cell lines were maintained in vitro as a monolayer in RPMI 1640 medium supplemented with 20% heat inactivated FBS, at 37° C. in an atmosphere of 5% CO2 in air. The tumor cells were sub-cultured, not exceeding 4-5 passages, and cells growing in an exponential growth phase were harvested and counted for tumor inoculation. Each mouse was inoculated subcutaneously on the right flank with OVCAR-3 tumor cells (2×10^7) in 0.2 mL of RPMI-1640 with Matrigel (1:1) for model development.
Treatment was started when the mean tumor size reached approximately 150-200 mm^3, at which time the mice were randomized into treatment groups such that the average starting tumor size is similar for each treatment group. Animals were then treated with vehicle or indicated mg/kg (10-100) of compound at a given frequency (e.g., BID, QD, 4 days on treatment followed by 3 days off treatment) by oral gavage at a final dosing volume of 10 mL/kg.
The measurement of tumor size was conducted with a caliper and recorded twice per […] week. The tumor volume (TV) (mm^3) was estimated using the formula: TV=a×b^2/2, where “a” and “b” are long and short diameters of a tumor, respectively.
The TVs were used for calculation of the tumor growth inhibition and tumor growth delay. For the tumor growth inhibition (TGI), the value using the formula: […]
The “TVfinal” and “TVinitial” are the mean tumor volumes on the final day and initial day, respectively.
All statistical tests was conducted on GraphPad, and the level of significance was set at 5% or P<0.05. The group means and standard deviations were calculated for all measurement parameters. Two-way RM ANOVA followed by Tukeys post hoc comparisons of the means was applied among groups.
Additionally, after compound treatment, the animals were observed an additional 28 days without compound treatment.
The initial treatment period with Example 1 was 28 days, after which overall efficacy and tolerability were evaluated based on tumor volume and body weight changes observed during the treatment period (FIG. 2a and FIG. 2b).
The initial treatment period with Example 1 was 28 days, after which overall efficacy and tolerability were evaluated based on tumor volume and body weight changes observed during the treatment period (FIG. 3a and FIG. 3b).

Series [5] deals with human megakaryocyte (CFU-MK) progenitors from human bone marrow mononuclear cells. Put plainly: Human megakaryocyte progenitor colony formation assay (CFU-MK). To be noted: 336 h, read-out: Free-fraction adjusted CFU-MK IC50. Type of series: cell-based.
The test system of another series is Caco-2 cell monolayers. Put plainly: Caco-2 permeation assay, bidirectional permeability. Type of series: in vitro ADME. To be noted: 5 μM, 2 h, Papp(B-A)/Papp(A-B). The essentials: as §1
The mark [6] stands for this setting: Homo sapiens, OVCAR-3, 168 h, 7-day assay.
Setting [7] is: Homo sapiens, OVCAR-3, 96 h, 4-day assay.
[8] abbreviates: day 28, 100 mg/kg once daily for 4 days followed by 3 days of no dosing.
Where [9] appears, read: 14 days culture, adjusted for binding to assay buffer.

Turning to `Cc1cc(NC(=O)c2ccc(NS(=O)(=O)CCO)cc2N2CC[C@@]3(F)CC[C@H]3C2)nc(N2CCC(F)(F)CC2)n1` (single isomer, unassigned) [Example 50b], the efflux ratio (as a rule, the permeability from basolateral to apical divided by that in the opposite direction, in the common usage) at 2 h, 5 μM in series [1] is below 10. The IC50 in the series with OVCAR-3 cells (setting [6]) was 100 to 500 nM. Moreover, the IC50 on KIF18A is below 100 nM. In [2], the “IV Clearance” value was determined as 0.74 mL/ming/kg, the Vd was found to be 0.51 L/kg, the highest level (Cmax) was 10100 ng/mL and the half-life is 10.6 h.

Take `Cc1cc(NC(=O)c2ccc(NS(=O)(=O)CCO)cc2N2CCC3(CC2)CC3)nc(N2CCC(F)(F)CC2)n1` [Compound A, reference compound]: the IC50 with OVCAR-3 cells (setting [7]) was below 100 nM. Also, the concentration at 6 h in series [3] (read-out: Bone marrow concentration at 6 h post-last dose) was 17000 ng/g. Moreover, the concentration at 24 h in [3] (read-out: Bone marrow concentration at 24 h post-last dose) amounted to 4100 ng/g. Moreover, in [2], the “IV Clearance” value stood at 4.1 mL/ming/kg and the Vd was determined as 2 L/kg.

In the case of `Cc1cc(NC(=O)c2ccc(NS(=O)(=O)CCO)cc2N2CC[Si](C)(C)CC2)nc(C2CCC(F)(F)CC2)n1` [Example 1, N-(2-(4,4-difluorocyclohexyl)-6-methylpyrimidin-4-yl)-2-(4,4-dimethyl-1,4-azasilinan-1-yl)-4-((2-hydroxyethyl)sulfonamido)benzamide], in series [1], the efflux ratio at 2 h, 5 μM was below 10. Moreover, the “Tolerability based on body weight” value in [4] is listed as “well tolerated”. Also, the IC50 in the series with OVCAR-3 cells (setting [7]) was below 100 nM. Moreover, in the series with OVCAR-3 xenografts (setting [8]), the “% T/C” value is listed as −2% and the “% TGI” value came to 102%. Also, the IC50 in [5] (setting [9]) stood at 17 nM. The IC50 at KIF18A was below 100 nM. Besides, in [2], the “IV Clearance” value is reported as 3.6 mL/ming/kg; the Vd was 2.7 L/kg; the Cmax – broadly, the maximum level reached in the sampled fluid or tissue – came out at 2900 ng/mL; the half-life is 8.9 h.

As to `Cc1cc(NC(=O)c2ccc(NS(=O)(=O)CCO)cc2N2CC[Si](C)(C)CC2)nc(N2CCC(F)(F)CC2)n1` [Example 9, N-[2-(4,4-difluoropiperidin-1-yl)-6-methylpyrimidin-4-yl]-2-(4,4-dimethyl-1,4-azasilinan-1-yl)-4-(2-hydroxyethanesulfonamido)benzamide], the efflux ratio at 2 h, 5 μM in series [1] is below 10. Further, the “Tolerability based on body weight” value in series [4] is on record as “well tolerated”. Also, the IC50 in the series on OVCAR-3 cells (setting [7]) is below 100 nM. Moreover, in the series with OVCAR-3 xenografts (day 28, 100 mg/kg once daily), the “% T/C” value is listed as −4% and the “% TGI” value worked out at 104%. For the same molecule, on KIF18A, the IC50 was 100 to 500 nM. Also, in [2], the “IV Clearance” value came to 1.7 mL/ming/kg, the Vd is 2.5 L/kg, the Cmax amounted to 3100 ng/mL and the half-life is 14.5 h.

On to `C[Si]1(C)CCN(c2cc(NS(=O)(=O)CCO)c(F)cc2C(=O)Nc2cccc(N3CCC(F)(F)CC3)n2)CC1` [Example 14], for which the IC50 was below 100 nM in the series with OVCAR-3 cells (setting [7]), 61 nM in series [5] and below 100 nM against KIF18A.

`Cc1cc(NC(=O)c2ccc(NS(=O)(=O)CCO)cc2N2CC[C@@]3(C)C[C@H]3C2)nc(N2CCC(F)(F)CC2)n1` [Example 36]: the IC50 with OVCAR-3 cells (setting [7]) was 100 to 500 nM; in [5] (setting [9]), 82 nM; against KIF18A, below 100 nM.

Regarding `Cc1cc(NC(=O)c2ccc(NS(=O)(=O)CCO)cc2N2CC[C@]3(C(F)F)C[C@@H]3C2)nc(N2CCC(F)(F)CC2)n1` [Example 86], the “Caco-2 assay efflux ratio” value with Caco-2 cell monolayers is “** (“**” means efflux ratio of <10)”. Also, the IC50 in the series on OVCAR-3 cells (7-day assay) is 100 to 500 nM; on KIF18A it was below 100 nM.

As for `Cc1cc(NC(=O)c2cc(F)c(NS(=O)(=O)CCO)cc2N2CC[Si](C)(C)CC2)nc(N2CCC(F)(F)CC2)c1` [Example 107], in series [1], the efflux ratio at 2 h, 5 μM is below 10. The IC50 in the series with OVCAR-3 cells (setting [6]) is below 100 nM; in [5] (setting [9]), 47 nM; on KIF18A, below 100 nM.

Values taken from patent US20250197428A1, “INHIBITORS OF KIF18A AND USES THEREOF” (ACCENT THERAPEUTICS, INC., priority 2022, published 2025).
